Test results: patent publication US5831000A, “Hybrid calcitonin” (Chugai Seiyaku Kabushiki Kaisha, priority 1990, dated 1998)
Several values for one entry are separate records, joined by “and”; a condition that tells them apart may be missing. Equal values may be shown once. Read-outs that look alike come from different tables or passages of the source. Positions of bridges follow the written chain, without caps; N, C: chain ends. Residues, ends and D or L forms follow the SMILES beside them.

Assays:
Female beagles [1] = details: dog, in vivo
Procedure: (§1) One hour later, enteric aspirin tablets (containing 200 mg of the active ingredient) were administered orally together with 25 ml of water. Thereafter, blood samples were taken from the other cephalic vein at given time intervals, and the plasma obtained in the usual manner was stored at -20° C. until measurement.
(§2) As it passes through the intestinal wall, most of the ingested aspirin is metabolized and enters the blood stream as salicylic acid. […] Ethanol (200 μl) was added to 50 μl of plasma and the mixture was centrifuged at 10,000 rpm×1 min, with the resulting supernatant being subjected to HPLC.
(§3) The difference between the time from calcitonin administration to the absorption of aspirin and the time from physiological saline administration to the absorption of aspirin was calculated for each animal to determine the delay in gastric emptying time.

hypercalcemic rats = experiment: Efficacy of calcitonins against hypercalcemia (vitamin D3 hypercalcemic rats); assay type: in vivo, rat; details: 4 IU/kg subcutaneously, FIG. 1
Procedure: Vitamin D3 (5 mg/kg) was administered orally to 5-wk old SD male rats for 4 consecutive days to construct experimental models of hypercalcemic rats. […] Blood was sampled at given time intervals and the concentration of calcium in plasma was measured.

conscious dog = experiment: Effects of calcitonins on gastrointestinal motility (IMC) in conscious dog; assay type: in vivo, beagle dog; details: for effect on the IMC / gastrointestinal motility: i.v., conscious dog, summary of Table 10
Description: A healthy beagle dog weighing about 10 kg was anesthetized with an i.v. injection of pentobarbital sodium and the abdominal cavity was opened under aseptic conditions.
Extraluminal force transducers were sutured onto the serosa of the gastric antrum stomach, duodenum and jejunum to measure circular muscle contraction, as reported previously (Itoh et al. Gastroenterol Jpn. 12, 275 1977).
The lead wires of these transducers were out of the abdominal cavity and then brought out through a skin incision made between the scapulae.
After the abdominal surgery, a 5-cm longitudinal skin incision was made in the right Frontal neck to expose the external jugular vein.
After the operation, a jacket protector was placed on the dog to protect the lead wires and the Silastic tube.
The dog was housed in individual experimental cage, and given commercial dog food at 5:00 P.M. and water was given freely.
The gastrointestinal motor activity was recorded on a thermal pen writing recorder (WR-3101, Graphtic, Tokyo, Japan) by connecting the lead wires of the transducers to the connecting cables from the amplifiers (UG-5, Nihon Kohden, Tokyo, Japan).
About two weeks postoperation, gastrointestinal contractile activity could be divided into two main patterns of activity, the interdigestive and digestive states.
In the interdigestive state, IMC (interdigestive migrating motor complex) were seen to occur at regular intervals of 100 to 120 min. in the gastric antrum, and migrated through the duodenum and jejunum at a constant velocity.
In all animals, feeding disrupted the regular IMC pattern. Experiments were carried out during interdigestive state. The drug was dissolved into 0.9% saline and administered through the indwelling Silastic tube for about 10 seconds in a volume of 0.3 ml/kg.
15 Min after the end of the IMC in the gastric antrum, which were subsequently flushed in with 0.9% saline.
The time until the next IMC is occurred from administration of the drug was measured, and used as a index for inhibitory activity of the drug on gastrointestinal motility.

Rats = experiment: Effects of calcitonins on the inhibition of body weight gain and appetite; details: intramuscular, 12.5, 50 and 200 IU/kg, 24 h later
Procedure: Each of the calcitonins was administered in three different doses: 12.5 IU/kg, 50 IU/kg and 200 IU/kg. For the body weight changes, the measured values were averaged for 5 rats, and for the food consumption, the measured values for 5 rats were added together.

Female beagles [2] = experiment: Effects of calcitonins on gastric emptying time (enteric aspirin absorption); details: for Delay time (difference in time to aspirin absorption between calcitonin and physiological saline) / Lag time (time from aspirin administration to its absorption): individual animals
Procedure: as §1, §2, §3

[3] = tested on: anti-salmon calcitonin human sera; experiment: Cross reaction between anti-salmon calcitonin human antibody and hybrid calcitonin (competition with 125I labelled salmon calcitonin); assay type: binding; details: anti-salmon calcitonin human sera Nos. 1-4, FIG. 5
Procedure: Salmon calcitonin was synthesized by an ordinary procedure of solid-phase synthesis. Salmon calcitonin labelled with ^125 I was prepared by the Tejedor method (Tejedor, F. and Ballesta, J. P. G.; Analytical Biochemistry, 127, 143-149 (1982)).
Four types of human sera that had been verified to contain antibody after administration of salmon calcitonin were furnished from Dr. Frederick R. Singer (CEDERS-SINAI MEDICAL CENTER). The antibody titres of those sera against salmon calcitonin were as follows:
A 0.1M borate buffer solution (pH 8.0) containing 0.5% BSA, 0.9% NaCl, 0.1% NaN3 and 0.05% Tween 20 was used as a reaction buffer. This reaction buffer, anti-salmon calcitonin human serum (diluted with the reaction buffer to a final dilution of 100-6,400) and a solution of labelled calcitonin were charged into an assist tube (Spitz type of Salschted Inc. measuring 12×75 mm) in the respective volumes shown below, stirred thoroughly, and left to stand overnight at room temperature.
The reaction solution was mixed well with 500 μl of 0.2% BGG (bovine γ-globulin, Sigma), further mixed with 1 ml of 25% PEG #6000, stirred thoroughly and thereafter left to stand at room temperature for 15 min. […] After removing the supernatant by aspiration, the radioactivity level of the residue was measured with a gamma-counter. […]

delay of the occurrence of the next IMC (conscious dog; dose of 3 μg/kg i.v.) [days]	SMILES	action in delaying the gastric emptying time (Female beagles [1])	effect on elevated blood (plasma) calcium concentration (hypercalcemic rats)	effect on the IMC / gastrointestinal motility (conscious dog)	body weight change (inhibition of body weight gain) (Rats; FIG. 3)	food consumption (appetite) (Rats; FIG. 4)	action in delaying the gastric emptying time (Female beagles [2]; beagles, summary of Table 9)	Delay time (difference in time to aspirin absorption between calcitonin and physiological saline) (Female beagles [2]; dose 6 μg (1.2 IU)/kg i.v.)	Lag time (time from aspirin administration to its absorption) (Female beagles [2]; dose 6 μg (1.2 IU)/kg i.v.)	Delay time (difference in time to aspirin absorption between calcitonin and physiological saline) (Female beagles [2]; dose 100 μg (20.0 IU)/kg i.v.)	Lag time (time from aspirin administration to its absorption) (Female beagles [2]; dose 100 μg (20.0 IU)/kg i.v.)	dose at which competition with 125I labelled salmon calcitonin started [3]
	CSCC[C@H](NC(=O)[C@@H]1CSSC[C@H](N)C(=O)NCC(=O)N[C@@H](CC(N)=O)C(=O)N[C@@H](CC(C)C)C(=O)N[C@@H](CO)C(=O)N[C@@H]([C@@H](C)O)C(=O)N1)C(=O)N[C@@H](CC(C)C)C(=O)NCC(=O)N[C@H](C(=O)N[C@@H](Cc1ccc(O)cc1)C(=O)N[C@H](C(=O)N[C@@H](CCC(N)=O)C(=O)N[C@@H](CC(=O)O)C(=O)N[C@@H](Cc1ccccc1)C(=O)N[C@@H](Cc1c[nH]cn1)C(=O)N[C@@H](CCCCN)C(=O)N[C@@H](CC(C)C)C(=O)N[C@@H](CCC(N)=O)C(=O)N[C@H](C(=O)N[C@@H](Cc1ccc(O)cc1)C(=O)N1CCC[C@H]1C(=O)N[C@@H](CCCNC(=N)N)C(=O)N[C@H](C(=O)N[C@@H](CC(N)=O)C(=O)N[C@H](C(=O)NCC(=O)N[C@@H](CO)C(=O)NCC(=O)N[C@H](C(=O)N1CCC[C@H]1C(N)=O)[C@@H](C)O)[C@@H](C)O)[C@@H](C)O)[C@@H](C)O)[C@@H](C)O)[C@@H](C)O [Example 1, (1-16) human/(17-32) salmon hybrid calcitonin] (H-CGNLSTCMLGTYTQDFHKLQTYPRTNTGSGTP-NH2; disulfide 1-7)	more similar to human calcitonin than salmon calcitonin in delaying to gastric emptying time										
	CC[C@H](C)[C@H](NC(=O)[C@H](C)NC(=O)[C@@H](NC(=O)[C@H](CCC(N)=O)NC(=O)[C@@H]1CCCN1C(=O)[C@H](Cc1ccccc1)NC(=O)[C@@H](NC(=O)[C@H](Cc1c[nH]cn1)NC(=O)[C@H](Cc1ccccc1)NC(=O)[C@H](CCCCN)NC(=O)[C@H](CC(N)=O)NC(=O)[C@H](Cc1ccccc1)NC(=O)[C@H](CC(=O)O)NC(=O)[C@H](CCC(N)=O)NC(=O)[C@@H](NC(=O)[C@H](Cc1ccc(O)cc1)NC(=O)[C@@H](NC(=O)CNC(=O)[C@H](CC(C)C)NC(=O)[C@H](CCSC)NC(=O)[C@@H]1CSSC[C@H](N)C(=O)NCC(=O)N[C@@H](CC(N)=O)C(=O)N[C@@H](CC(C)C)C(=O)N[C@@H](CO)C(=O)N[C@@H]([C@@H](C)O)C(=O)N1)[C@@H](C)O)[C@@H](C)O)[C@@H](C)O)[C@@H](C)O)C(=O)NCC(=O)N[C@H](C(=O)NCC(=O)N[C@@H](C)C(=O)N1CCC[C@H]1C(N)=O)C(C)C [human calcitonin]		caused rapid reduction in the elevated blood calcium concentration	only a slight effect on the IMC	no differences	no differences	weak in such action	1.3 h and 2.6 h and 2.9 h	3.0 h and 3.9 h and 4.0 h	4.4 h and 5.0 h	5.0 h and 6.9 h	
3	CC(C)C[C@H](NC(=O)[C@H](CCCCN)NC(=O)CNC(=O)[C@H](CC(C)C)NC(=O)[C@@H](NC(=O)[C@@H]1CSSC[C@H](N)C(=O)N[C@@H](CO)C(=O)N[C@@H](CC(N)=O)C(=O)N[C@@H](CC(C)C)C(=O)N[C@@H](CO)C(=O)N[C@@H]([C@@H](C)O)C(=O)N1)C(C)C)C(=O)N[C@@H](CO)C(=O)N[C@@H](CCC(N)=O)C(=O)N[C@@H](CCC(=O)O)C(=O)N[C@@H](CC(C)C)C(=O)N[C@@H](Cc1c[nH]cn1)C(=O)N[C@@H](CCCCN)C(=O)N[C@@H](CC(C)C)C(=O)N[C@@H](CCC(N)=O)C(=O)N[C@H](C(=O)N[C@@H](Cc1ccc(O)cc1)C(=O)N1CCC[C@H]1C(=O)N[C@@H](CCCNC(=N)N)C(=O)N[C@H](C(=O)N[C@@H](CC(N)=O)C(=O)N[C@H](C(=O)NCC(=O)N[C@@H](CO)C(=O)NCC(=O)N[C@H](C(=O)N1CCC[C@H]1C(N)=O)[C@@H](C)O)[C@@H](C)O)[C@@H](C)O)[C@@H](C)O [salmon calcitonin]	very strong action in delaying the gastric emptying time	caused rapid reduction in the elevated blood calcium concentration	does-dependently inhibited the occurrence of the next IMC								at least 1 ng/ml
